19 compounds from ChEMBL document CHEMBL5352410, “Discovery of novel selenium-containing azole derivatives as antifungal agents by exploiting the hydrophobic cleft of CYP51” (Eur J Med Chem, 2022) can be followed below.

≈ marks a conversion by molar mass, not a printed value.

What all share (format): functional
In assay [1] the test system is Candida albicans. In words: Antifungal activity against FCZ-resistant Candida albicans CaR by CLSI based broth microdilution method. (Dilution methods test growth across graded concentrations, often in twofold steps.)
Assay [2] deals with Pichia kudriavzevii. The assay can be described thus: Antifungal activity against Pichia kudriavzevii by CLSI based broth microdilution method.
Assay [3] concerns [Candida] zeylanoides. In words: Antifungal activity against Candida zeylanoides by CLSI based broth microdilution method. Particulars: Dujonia zeylanoides.
The test system of assay [4] is Cryptococcus neoformans. The assay can be described thus: Antifungal activity against Cryptococcus neoformans by CLSI based broth microdilution method.
The test system of assay [5] is Candida parapsilosis. In words: Antifungal activity against Candida parapsilosis by CLSI based broth microdilution method. Particulars: Lodderomyces parapsilosis.
Assay [6] concerns Aspergillus fumigatus. In words: Antifungal activity against Aspergillus fumigatus by CLSI based broth microdilution method.
Assay [7] deals with Nakaseomyces glabratus. The assay can be described thus: Antifungal activity against Candida glabrata by CLSI based broth microdilution method.
Assay [8] deals with Candida albicans. The assay can be described thus: Antifungal activity against Candida albicans sc5314 by CLSI based broth microdilution method.
For assay [9], the system named is Candida albicans. The assay can be described thus: Antifungal activity against FCZ-resistant Candida albicans 904 by CLSI based broth microdilution method.
For assay [10], the system named is Candida albicans. In words: Antifungal activity against FCZ-resistant Candida albicans 17# by CLSI based broth microdilution method.
The test system of assay [11] is Candida albicans. In words: Antifungal activity against FCZ-resistant Candida albicans 901 by CLSI based broth microdilution method.
For assay [12], the system named is Candida albicans. In words: Antifungal activity against Candida albicans by CLSI based broth microdilution method.
Assay [13] concerns Candida albicans. The assay can be described thus: Antifungal activity against FCZ-resistant Candida albicans 632 by CLSI based broth microdilution method.

As usually defined, the MIC is the lowest concentration that inhibits growth of the organism. A high value points to weaker potency.

In the case of `Clc1ccc(C(Cn2ccnn2)[Se]C(Cn2ccnn2)c2ccc(Cl)cc2)cc1` (stereo not drawn), the MIC in assay [1] is greater than 64 µg/mL; in [2], 32 µg/mL (≈ 65 µM); in assay [3], 64 µg/mL (≈ 130 µM); in [4] it was greater than 64 µg/mL; in assay [5], greater than 64 µg/mL; in assay [6] it was greater than 64 µg/mL. In addition, the MIC in assay [7] is 8 µg/mL (≈ 16.3 µM); in assay [8], greater than 64 µg/mL; in assay [9], greater than 64 µg/mL; in assay [10] it was greater than 64 µg/mL; in assay [11], greater than 64 µg/mL; in assay [12], greater than 64 µg/mL. Moreover, in [13], the MIC is greater than 64 µg/mL.
Take `Fc1ccc(C(Cn2cncn2)[Se][Se]C(Cn2cncn2)c2ccc(F)cc2F)c(F)c1` (stereo not drawn): the MIC was 16 µg/mL (≈ 27.9 µM) in assay [1]; 64 µg/mL (≈ 111 µM) in [9]; 8 µg/mL (≈ 13.9 µM) in assay [10]; 16 µg/mL (≈ 27.9 µM) in assay [11]; greater than 64 µg/mL in [13].
On to `Fc1ccc(C(Cn2ccnn2)[Se]C(Cn2ccnn2)c2ccc(F)cc2)cc1` (stereo not drawn), for which the MIC in assay [1] is greater than 64 µg/mL; in [2], 64 µg/mL (≈ 139 µM); in [3], 64 µg/mL (≈ 139 µM); in [4], greater than 64 µg/mL; in assay [5], greater than 64 µg/mL; in assay [6], greater than 64 µg/mL. Also, the minimal inhibitory concentration (MIC) is 8 µg/mL (≈ 17.4 µM) in assay [7]; greater than 64 µg/mL in assay [8]; greater than 64 µg/mL in [9]; greater than 64 µg/mL in [10]; greater than 64 µg/mL in assay [11]; greater than 64 µg/mL in assay [12]. Moreover, the minimal inhibitory concentration (MIC) in assay [13] was greater than 64 µg/mL.
On to `Clc1ccc(C(Cn2cnnn2)[Se]C(Cn2cnnn2)c2ccc(Cl)cc2)cc1` (stereo not drawn), for which the MIC in assay [1], in assay [2], in assay [3], in assay [4], in assay [5] and in assay [6] was greater than 64 µg/mL in each case. The minimum inhibitory concentration (MIC) in assay [7], in [8], in [9], in assay [10], in assay [11] and in assay [12] was greater than 64 µg/mL each time. Besides, in assay [13], the MIC is greater than 64 µg/mL.
Regarding `Fc1ccc(C(Cn2cncn2)[Se]C(Cn2cncn2)c2ccc(F)cc2F)c(F)c1` (stereo not drawn), the minimal inhibitory concentration (MIC) in [1] is 32 µg/mL (≈ 64.6 µM); in assay [2], greater than 64 µg/mL; in [3] it was 8 µg/mL (≈ 16.2 µM); in assay [4] it was 4 µg/mL (≈ 8.08 µM); in [5], greater than 64 µg/mL; in assay [6] it was greater than 64 µg/mL. Moreover, the MIC in [7] is greater than 64 µg/mL; in assay [8], 4 µg/mL (≈ 8.08 µM); in [9], 16 µg/mL (≈ 32.3 µM); in assay [10], 8 µg/mL (≈ 16.2 µM); in assay [11], 16 µg/mL (≈ 32.3 µM); in [12], 64 µg/mL (≈ 129 µM). In [13], this compound had a minimum inhibitory concentration (MIC) of 32 µg/mL (≈ 64.6 µM).
In the case of `Clc1ccc(C(Cn2ccnn2)[Se]C(Cn2ccnn2)c2ccc(Cl)cc2Cl)c(Cl)c1` (stereo not drawn), the MIC in assay [1] was 128 µg/mL (≈ 228 µM); in assay [2] it was greater than 64 µg/mL; in assay [3] it was 32 µg/mL (≈ 57 µM); in assay [4], 64 µg/mL (≈ 114 µM); in assay [5], greater than 64 µg/mL; in [6], greater than 64 µg/mL. Further, the MIC in [7] is 64 µg/mL (≈ 114 µM); in [8], greater than 64 µg/mL; in [9] it was greater than 64 µg/mL; in assay [10], 4 µg/mL (≈ 7.13 µM); in assay [11], greater than 64 µg/mL; in assay [12], greater than 64 µg/mL. In assay [13], the MIC was greater than 64 µg/mL.
On to `Fc1ccc(C(Cn2ccnn2)[Se]C(Cn2ccnn2)c2ccc(F)cc2F)c(F)c1` (stereo not drawn), for which the minimal inhibitory concentration (MIC) in [1] is 64 µg/mL (≈ 129 µM); in assay [2], greater than 64 µg/mL; in assay [3], 1 µg/mL (≈ 2.02 µM); in assay [4] it was 32 µg/mL (≈ 64.6 µM); in assay [5], greater than 64 µg/mL; in [6] it was greater than 64 µg/mL. Moreover, the MIC in assay [7] was 64 µg/mL (≈ 129 µM); in [8], greater than 64 µg/mL; in assay [9], greater than 64 µg/mL; in assay [10] it was 4 µg/mL (≈ 8.08 µM); in assay [11] it was greater than 64 µg/mL; in [12], greater than 64 µg/mL. The minimum inhibitory concentration (MIC) in [13] is greater than 64 µg/mL.
`Clc1ccc(C(Cn2ccnn2)[Se][Se]C(Cn2ccnn2)c2ccc(Cl)cc2Cl)c(Cl)c1` (stereo not drawn): the minimum inhibitory concentration (MIC) in assay [1] is 4 µg/mL (≈ 6.25 µM); in [9], greater than 64 µg/mL; in assay [10], 64 µg/mL (≈ 100 µM); in [11], greater than 64 µg/mL; in assay [13], greater than 64 µg/mL.
As to `Fc1ccc(C(Cn2cncn2)[Se][Se]C(Cn2cncn2)c2ccc(F)cc2)cc1` (stereo not drawn), the MIC in assay [1] came out at 4 µg/mL (≈ 7.43 µM); in [9], 16 µg/mL (≈ 29.7 µM); in assay [10], 16 µg/mL (≈ 29.7 µM); in assay [11], 16 µg/mL (≈ 29.7 µM); in assay [13] it was 64 µg/mL (≈ 119 µM).
As to `Clc1ccc(C(Cn2cncn2)[Se][Se]C(Cn2cncn2)c2ccc(Cl)cc2Cl)c(Cl)c1` (stereo not drawn), the minimal inhibitory concentration (MIC) in assay [1] was 8 µg/mL (≈ 12.5 µM); in assay [9], greater than 64 µg/mL; in [10], 16 µg/mL (≈ 25 µM); in assay [11], greater than 64 µg/mL; in [13], greater than 64 µg/mL.
As to `Fc1ccc(C(Cn2ccnn2)[Se][Se]C(Cn2ccnn2)c2ccc(F)cc2)cc1` (stereo not drawn), the MIC in assay [1] is 32 µg/mL (≈ 59.4 µM); in [9], greater than 64 µg/mL; in assay [10], greater than 64 µg/mL; in assay [11], greater than 64 µg/mL; in assay [13] it was greater than 64 µg/mL.
As to `CCC(C)n1ncn(-c2ccc(N3CCN(c4ccc(OCC5COC(Cn6cncn6)(c6ccc(Cl)cc6Cl)O5)cc4)CC3)cc2)c1=O` (stereo not drawn) [ITRACONAZOLE], the MIC was 8 µg/mL (≈ 11.3 µM) in [1]; greater than 64 µg/mL in assay [9]; greater than 64 µg/mL in [10]; greater than 64 µg/mL in assay [11]; greater than 64 µg/mL in assay [13].
`Clc1ccc(C(Cn2cnnn2)[Se][Se]C(Cn2cnnn2)c2ccc(Cl)cc2Cl)c(Cl)c1` (stereo not drawn): the MIC in assay [1] is 64 µg/mL (≈ 99.7 µM); in [9], greater than 64 µg/mL; in assay [10], 64 µg/mL (≈ 99.7 µM); in assay [11], greater than 64 µg/mL; in assay [13], greater than 64 µg/mL.
Take `Clc1ccc(C(Cn2cncn2)[Se][Se]C(Cn2cncn2)c2ccc(Cl)cc2)cc1` (stereo not drawn): the minimum inhibitory concentration (MIC) in assay [1] was 4 µg/mL (≈ 7 µM); in assay [9] it was 16 µg/mL (≈ 28 µM); in assay [10] it was 64 µg/mL (≈ 112 µM); in assay [11], 16 µg/mL (≈ 28 µM); in [13], greater than 64 µg/mL.
As for `Clc1ccc(C(Cn2ccnn2)[Se][Se]C(Cn2ccnn2)c2ccc(Cl)cc2)cc1` (stereo not drawn), the minimum inhibitory concentration (MIC) in [1], in assay [9], in assay [10], in [11] and in assay [13] was greater than 64 µg/mL throughout.
On to `Fc1ccc(C(Cn2cnnn2)[Se][Se]C(Cn2cnnn2)c2ccc(F)cc2)cc1` (stereo not drawn), for which the MIC is 16 µg/mL (≈ 29.6 µM) in assay [1]; greater than 64 µg/mL in assay [9]; 32 µg/mL (≈ 59.2 µM) in assay [10]; greater than 64 µg/mL in assay [11]; greater than 64 µg/mL in assay [13].
Turning to `Clc1ccc(C(Cn2cnnn2)[Se][Se]C(Cn2cnnn2)c2ccc(Cl)cc2)cc1` (stereo not drawn), the MIC in assay [1], in assay [9], in [10], in assay [11] and in [13] was greater than 64 µg/mL each time.
As for `Fc1ccc(C(Cn2cnnn2)[Se][Se]C(Cn2cnnn2)c2ccc(F)cc2F)c(F)c1` (stereo not drawn), the MIC in assay [1] is greater than 64 µg/mL; in [9], greater than 64 µg/mL; in [10] it was 64 µg/mL (≈ 111 µM); in assay [11], greater than 64 µg/mL; in assay [13], greater than 64 µg/mL.
`Fc1ccc(C(Cn2ccnn2)[Se][Se]C(Cn2ccnn2)c2ccc(F)cc2F)c(F)c1` (stereo not drawn): the minimum inhibitory concentration (MIC) is 4 µg/mL (≈ 6.96 µM) in assay [1]; greater than 64 µg/mL in assay [9]; 16 µg/mL (≈ 27.9 µM) in assay [10]; greater than 64 µg/mL in assay [11]; greater than 64 µg/mL in [13].
